Converted amounts (≈) assume the structure as drawn. Like-named read-outs stand apart in the source and are kept apart here.
Assays:
Format in all cases: physicochemical
[1] = Chemical stability of aspirin in ASA/Leucine formulations by RP-HPLC after storage; conditions: reference standard, no storage condition
Description: Chemical stability of aspirin in the formulations were tested by RP-HPLC before and after the formulations were exposed to various storage conditions.

[2] = Potency and purity by RP-HPLC of aspirin/leucine formulations; conditions: before storage
Description: The properties of the ASA formulation were evaluated, including geometric particle size distribution (e.g., using laser diffraction such as the Malvern Dry Method); particle morphology (e.g., using scanning electron microscopy (SEM)); ID/Assay and purity (e.g., by HPLC); X-ray powder diffraction (XRPD); and aerosol properties by NGI.

[3] = ASA and L-leucine absolute solubility in EtOH/water blends
Description: To define the absolute solubility of ASA and L-leucine in a variety of solvent blends, solvent blends were evaluated for solubility of ASA and L-leucine by visual confirmation. As used in this example, unless specified otherwise, leucine is L-leucine.

[4] = ASA and L-leucine mixing solubility; conditions: for precipitation after mixing: 5 wt. % total solids, on the order of minutes
Description: The objective is to apply absolute solubility of ASA and L-Leu to a mixing study to determine if a spray drying approach is feasible. ASA and L-leucine was independently dissolved in preferred solvent: ASA in EtOH, and L-leucine in a sulfuric acid solution (pH 4.0) (which may increase L-leucine solubility in water). Proposed formulations were evaluated at a final total solids of 7 wt. % and 5 wt. %. In one embodiment, solvent ratio was 25/75 EtOH/Water. Precipitation of components was analyzed visually.

[5] = Anti-solvent evaluation of 5% w/w acetylsalicylic acid suspensions; conditions: 5% w/w suspension, room temperature
Description: After considering a number of factors in the end it was determined that only n-heptane and toluene fulfilled all the requirements, and therefore these were selected for further evaluation. Suspensions of acetylsalicylic acid at 5% w/w were prepared with the various anti-solvents, by charging the required amount of anti-solvent, charging the required amount of acetylsalicylic acid, and then stirring until a homogeneous suspension was obtained. The suspensions were qualitatively evaluated at room temperature and then filtered using a 0.45 μm membrane, which was then placed in an oven and dried at 60° C. until the solvent had completely evaporated. A quantitative analysis was performed on the residue that remained in the membrane by weighing the membrane before and after the test.

[6] = ASA in ethanol spray solution stability evaluation; conditions: for % ASA Purity / % SA: 9 wt % ASA in ethanol
Description: ASA degrades to salicylic acid (SA) as a function of time and temperature due to dissolution. Initial and cold 1 day solutions contained less than 0.5% SA.
9 wt % ASA was added to ethanol with constant stirring to stainless steel vessels. Samples were either stirred at ambient room temperature (approx. 22° C.) or 4° C. and sampled at 1, 3 and 6 days (Table 34).

What does the source list for `CC(=O)Oc1ccccc1C(=O)O` [ASA Reference Standard]?
ASA Purity (%) [1]: 99.76%; SA Impurity (%) [1]: 0.24%

Which results are given for `CC(=O)Oc1ccccc1C(=O)O` [ASA Standard]?
ASA Purity [2]: 99.76 ± 0.11%; SA Purity [2]: 0.24 ± 0.11%

Which results are given for `CC(C)C[C@H](N)C(=O)O` [L-Leucine, L-leucine]?
solubility ([3]; Neutral, EtOH/Water 0/100 (v/v), read-out: L-Leucine solubility): 10000 µg/mL (≈ 76.2 mM); L-Leucine solubility ([3]; Neutral, EtOH/Water 25/75 (v/v)): 0.04 wt. %; L-Leucine solubility ([3]; Neutral, EtOH/Water 50/50 (v/v)): 0.03 wt. %; L-Leucine solubility ([3]; Neutral, EtOH/Water 75/25 (v/v)): 0.02 wt. %; L-Leucine solubility ([3]; Neutral, EtOH/Water 90/10 (v/v)): Insouble; solubility ([3]; aqueous buffer, pH 3, EtOH/Water 0/100 (v/v), read-out: L-Leucine solubility): 17000 µg/mL (≈ 130 mM); solubility ([3]; aqueous with cosolvent or surfactant or cyclodextrin, Neutral, EtOH/Water 10/90 (v/v), read-out: L-Leucine solubility): 9000 µg/mL (≈ 68.6 mM); solubility ([3]; aqueous with cosolvent or surfactant or cyclodextrin, Neutral, EtOH/Water 25/75 (v/v), read-out: L-Leucine solubility): 400 µg/mL (≈ 3.05 mM); solubility ([3]; aqueous with cosolvent or surfactant or cyclodextrin, Neutral, EtOH/Water 50/50 (v/v), read-out: L-Leucine solubility): 300 µg/mL (≈ 2.29 mM); solubility ([3]; aqueous with cosolvent or surfactant or cyclodextrin, pH 3, EtOH/Water 10/90 (v/v), read-out: L-Leucine solubility): 11000 µg/mL (≈ 83.9 mM); solubility ([3]; aqueous with cosolvent or surfactant or cyclodextrin, pH 3, EtOH/Water 50/50 (v/v), read-out: L-Leucine solubility): 1000 µg/mL (≈ 7.62 mM); solubility ([3]; organic solvent or mixture, Neutral, EtOH/Water 75/25 (v/v), read-out: L-Leucine solubility): 200 µg/mL (≈ 1.52 mM); L-Leucine solubility ([3]; pH 3, EtOH/Water 0/100 (v/v)): 1.7 wt. %; L-Leucine solubility ([3]; pH 3, EtOH/Water 10/90 (v/v)): 1.0 wt. %; L-Leucine solubility ([3]; pH 3, EtOH/Water 50/50 (v/v)): 0.1 wt. %; precipitation after mixing [4]: no evidence of precipitation; time to precipitation out of solution ([4]; 7 wt. % solids, 85/15 ASA/L-leucine formulation, after mixing): approximately 60 seconds

Which “solubility behaviour in anti-solvent” value ([5]; n-heptane) does the source give for `CC(=O)Oc1ccccc1C(=O)O` [acetylsalicylic acid] here?
Its value is “phobic behavior”.

And the “solubility behaviour in anti-solvent” value ([5]; toluene)?
Its value is “partially soluble”.

What about the ASA solubility ([3]; EtOH/Water 50/50 (v/v)) of the same compound?
Its ASA solubility is 7.5 wt. %.

And the solubility ([3]; EtOH/Water 50/50 (v/v), aqueous with cosolvent or surfactant or cyclodextrin, read-out: ASA solubility)?
Its solubility is 72500 µg/mL (≈ 402 mM).

What about the ASA solubility ([3]; EtOH/Water 75/25 (v/v)) of the same compound?
The ASA solubility was 17.4 wt. %.

What about the solubility ([3]; EtOH/Water 75/25 (v/v), organic solvent or mixture, read-out: ASA solubility) of the same compound?
The solubility was 118000 µg/mL (≈ 653 mM).

What about the ASA solubility ([3]; EtOH/Water 90/10 (v/v)) of the same compound?
Its ASA solubility is 21.4 wt. %.

What about the solubility ([3]; EtOH/Water 90/10 (v/v), organic solvent or mixture, read-out: ASA solubility) of the same compound?
Its solubility is 220000 µg/mL (≈ 1220 mM).

What about the ASA solubility ([3]; all solvent blends except 25/75 EtOH/water) of the same compound?
The ASA solubility was “up to 5 wt. % total solids”.

What about the precipitation after mixing [4] of the same compound?
Its precipitation after mixing is “no evidence of precipitation”.

What about the “% ASA Purity” value ([6]; Ambient Conditions, 1 Day) of the same compound?
The value was 98.0%.

And the “% SA” value ([6]; Ambient Conditions, 1 Day)?
The value was 1.7%.

What about the “% ASA Purity” value ([6]; Ambient Conditions, 3 Day) of the same compound?
Its value is 90.5%.

What about the “% SA” value ([6]; Ambient Conditions, 3 Day) of the same compound?
The value was 7.5%.

And the “% ASA Purity” value ([6]; Ambient Conditions, 6 Day)?
Its value is 90.5%.

And the “% SA” value ([6]; Ambient Conditions, 6 Day)?
Its value is 7.2%.

What about the “% ASA Purity” value ([6]; Ambient Conditions, Initial) of the same compound?
Its value is 99.9%.

What about the “% SA” value ([6]; Ambient Conditions, Initial) of the same compound?
The value was 0.1%.

What about the “% ASA Purity” value ([6]; Controlled 4° C., 1 Day) of the same compound?
Its value is 99.1%.

What about the “% SA” value ([6]; Controlled 4° C., 1 Day) of the same compound?
The value was 0.4%.

And the “% ASA Purity” value ([6]; Controlled 4° C., 3 Day)?
Its value is 97.5%.

What about the “% SA” value ([6]; Controlled 4° C., 3 Day) of the same compound?
The value was 2.0%.

And the “% ASA Purity” value ([6]; Controlled 4° C., 6 Day)?
The value was 96.7%.

What about the “% SA” value ([6]; Controlled 4° C., 6 Day) of the same compound?
Its value is 2.3%.

What about the “% ASA Purity” value ([6]; Controlled 4° C., Initial) of the same compound?
The value was 99.9%.

And the “% SA” value ([6]; Controlled 4° C., Initial)?
Its value is 0%.

What about the “SA content of spray solution” value ([6]; Initial and cold 1 day solutions) of the same compound?
The value was “less than 0.5%”.
